Measured values reported in US5464826A, “Method of treating tumors in mammals with 2',2'-difluoronucleosides” (Eli Lilly and Company, priority 1994, dated 1995).

Tests used:
CA755 adenocarcinoma = CA755 adenocarcinoma tumor model; format: in vivo, mice (C57BL/6); conditions: IP, Days 1,5,9
From the text: CA755--The adenocarcinoma 755 is an undifferentiated mammary carcinoma which was obtained in 1980 from the Division of Cancer Treatment, N.C.I., tumor bank maintained at E.G. and G. Mason Research (Worchester, Mass.). First passage tumor was stored in liquid nitrogen using standard techniques. The transplanted tumor was re-established from the tumor bank every six months or as needed. The tumor is maintained by serial passage once a week in C57BL/6 female mice (Jackson Laboratory; Bar Harbor, Me.).
(§1) The tumor was removed from passage animals and minced into 1 to 3 mm square fragments using sterile techniques. Tumor pieces were checked for sterility using both Antibiotic Medium 1 and Brain Heart Infusion (Difco; Detroit, Mich.). Recipient mice were shaved and tumor pieces were implanted subcutaneously in the axillary region by trocar. Drug therapy on the appropriate schedule was initiated on the day after tumor implant. The compound was dissolved in saline for all experiments. All animals were weighed at the beginning and end of drug treatment. Food and water were provided ad libitum. On days 10 to 12, two dimensional measurements (width and length) of all tumors were taken using vernier calipers. Tumor weights were calculated from these measurements using the following formula:
(§2) Tumor Weight (mg)=Tumor Length (mm)×Tumor Width (mm)^2 /2
(§3) For all data, the tumor weight was rounded to the nearest tenth of a gram for analysis. No group is included in the analysis for therapeutic activity in which deaths attributable to drug toxicity exceeded 30 percent of the treated group.
(§4) In Table 3 which follows, column 1 gives the example number of the compound tested; column 2 provides the tumor system; column 3, the dose level; column 4, the route administered; column 5, the dosage schedule; column 6, the percent inhibition of the tumor; and column 7, the toxic deaths observed prior to completion of the study.

[1] = system: P1534J lymphatic leukemia; assay: P1534J lymphatic leukemia tumor model; format: in vivo, mice (DBA/2); conditions: IP, Days 1,5,9
From the text: P1534J--The P1534J lymphocytic leukemia (solid form) was obtained in 1973 from the Jackson Laboratory (Bar Harbor, Me.). First passage tumor was stored in liquid nitrogen using standard techniques. Subsequent replenishment of the tumor bank with this tumor was accomplished from first passage tumor. The transplanted tumor was re-established from the tumor bank every six months or as needed. The tumor is maintained by serial passage once a week in DBA/2 mice (Charles River; Wilmington, Mass.).
as §1, §2, §3, §4

[2] = system: L1210V lymphocytic leukemia; assay: L1210V Lymphocytic Leukemia Tumor System; format: in vivo, mice; conditions: for Indefinite Survivors: 45 day survivors; for Toxic Deaths: deaths/mice in group
Procedure: The study testing the efficacy of these compounds against L1210V leukemia was initiated by an IP inoculation of 1×10^6 cells. Treatment was begun 24 hours after inoculation. The response to therapy was determined by comparing the mean life span of the ten treated animals to that of the ten control animals; prolongation of life in the treated animals beyond that of controls is expressed as a percentage. In the Table, column 1 gives the example number of the compound tested; column 2, the experiment number; column 3, the dose level of the compound in mg/kg; column 4, the route of administration; column 5, the dosage schedule, that is, the days on which the compound was administered to the mice; column 6, the average increase in life span of the treated mice as compared to the control mice; column 7, the toxic deaths over the number of mice in each group; and column 8, the indefinite survivors, that is, the number of 45 day survivors in each group.

[3] = system: X5563 plasma cell myeloma; assay: X5563 plasma cell myeloma tumor model; format: in vivo, mice (C3H); conditions: IP, Days 1,5,9
From the text: X5563 Myeloma--the tumor is maintained in C3H mice.
as §1, §2, §3, §4

[4] = Experiment 1, 1.25 mg/kg, IP, Days 1,5,9
[5] = Experiment 1, 2.5 mg/kg, IP, Days 1,5,9
[6] = Experiment 1, 5.0 mg/kg, IP, Days 1,5,9
[7] = Experiment 1, 10.0 mg/kg, IP, Days 1,5,9
[8] = Experiment 1, 20.0 mg/kg, IP, Days 1,5,9
[9] = Experiment 2, 0.5 mg/kg, IP, Daily for 10 Days
[10] = Experiment 2, 1.0 mg/kg, IP, Daily for 10 Days
[11] = Experiment 2, 2.0 mg/kg, IP, Daily for 10 Days
[12] = Experiment 3, 25.0 mg/kg, IP, Day 1 only
[13] = Experiment 3, 50.0 mg/kg, IP, Day 1 only
[14] = Experiment 3, 100.0 mg/kg, IP, Day 1 only
[15] = Experiment 3, 200.0 mg/kg, IP, Day 1 only
[16] = Experiment 4, 0.5 mg/kg, PO, Daily for 10 days
[17] = Experiment 4, 1.0 mg/kg, PO, Daily for 10 days
[18] = Experiment 4, 2.0 mg/kg, PO, Daily for 10 days
[19] = Experiment 4, 4.0 mg/kg, PO, Daily for 10 days
[20] = Experiment 5, 0.5 mg/kg, IP, Daily for 9 days
[21] = Experiment 5, 1.0 mg/kg, IP, Daily for 9 days
[22] = Experiment 5, 2.0 mg/kg, IP, Daily for 9 days
[23] = Experiment 5, 4.0 mg/kg, IP, Daily for 9 days

With `Nc1ccn(C2O[C@H](CO)[C@@H](O)C2(F)F)c(=O)n1` (stereo partly drawn) [Example 1, 1-(4-Amino-2-oxo-1H-pyrimidin-1-yl)-2-desoxy-2,2-difluororibose] the “Percent Inhibition of Tumor” value (CA755 adenocarcinoma; 1.25 mg/kg) was 0%, the “Toxic Deaths” value (CA755 adenocarcinoma; 1.25 mg/kg) was 0/10 and the “Percent Inhibition of Tumor” value (CA755 adenocarcinoma; 2.5 mg/kg) was 44%. The “Toxic Deaths” value (CA755 adenocarcinoma; 2.5 mg/kg) was 0/10, the “Percent Inhibition of Tumor” value (CA755 adenocarcinoma; 5.0 mg/kg) was 85% and the “Toxic Deaths” value (CA755 adenocarcinoma; 5.0 mg/kg) was 0/10. For the same molecule, the “Percent Inhibition of Tumor” value (CA755 adenocarcinoma; 10.0 mg/kg) was 86%, the “Toxic Deaths” value (CA755 adenocarcinoma; 10.0 mg/kg) was 0/10 and the “Percent Inhibition of Tumor” value (CA755 adenocarcinoma; 20.0 mg/kg) was 94%. The “Toxic Deaths” value (CA755 adenocarcinoma; 20.0 mg/kg) was 0/10, the “Percent Inhibition of Tumor” value ([1]; 1.25 mg/kg) was 8% and the “Toxic Deaths” value ([1]; 1.25 mg/kg) was 0/10. The “Percent Inhibition of Tumor” value ([1]; 2.5 mg/kg) was 30%, the “Toxic Deaths” value ([1]; 2.5 mg/kg) was 0/10 and the “Percent Inhibition of Tumor” value ([1]; 5.0 mg/kg) was 47%. For the same molecule, the “Toxic Deaths” value ([1]; 5.0 mg/kg) was 0/10, the “Percent Inhibition of Tumor” value ([1]; 10.0 mg/kg) was 71% and the “Toxic Deaths” value ([1]; 10.0 mg/kg) was 2/10. For the same molecule, the “Percent Inhibition of Tumor” value ([1]; 20.0 mg/kg) was 92%, the “Toxic Deaths” value ([1]; 20.0 mg/kg) was 1/10 and the “Percent Increase Life Span” value [2, 4] was 50%. The “Indefinite Survivors” value [2, 4] was 0, the “Toxic Deaths” value [2, 4] was 0/10 and the “Percent Increase Life Span” value [2, 5] was 60%. For the same molecule, the “Indefinite Survivors” value [2, 5] was 0, the “Toxic Deaths” value [2, 5] was 0/10 and the “Percent Increase Life Span” value [2, 6] was 66%. For the same molecule, the “Indefinite Survivors” value [2, 6] was 0, the “Toxic Deaths” value [2, 6] was 0/10 and the “Percent Increase Life Span” value [2, 7] was 66%. The “Indefinite Survivors” value [2, 7] was 0, the “Toxic Deaths” value [2, 7] was 1/10 and the “Percent Increase Life Span” value [2, 8] was 60%. The “Indefinite Survivors” value [2, 8] was 0, the “Toxic Deaths” value [2, 8] was 0/10 and the “Percent Increase Life Span” value [2, 9] was 13%. For the same molecule, the “Indefinite Survivors” value [2, 9] was 0, the “Toxic Deaths” value [2, 9] was 0/10 and the “Percent Increase Life Span” value [2, 10] was 0%. For the same molecule, the “Indefinite Survivors” value [2, 10] was 0, the “Toxic Deaths” value [2, 10] was 0/10 and the “Percent Increase Life Span” value [2, 11] was 0%. For the same molecule, the “Indefinite Survivors” value [2, 11] was 0, the “Toxic Deaths” value [2, 11] was 0/10 and the “Percent Increase Life Span” value [2, 12] was 23%. For the same molecule, the “Indefinite Survivors” value [2, 12] was 0, the “Toxic Deaths” value [2, 12] was 0/10 and the “Percent Increase Life Span” value [2, 13] was 30%. The “Indefinite Survivors” value [2, 13] was 0, the “Toxic Deaths” value [2, 13] was 0/10 and the “Percent Increase Life Span” value [2, 14] was 26%. The “Indefinite Survivors” value [2, 14] was 0, the “Toxic Deaths” value [2, 14] was 0/10 and the “Percent Increase Life Span” value [2, 15] was 34%. For the same molecule, the “Indefinite Survivors” value [2, 15] was 0, the “Toxic Deaths” value [2, 15] was 0/10 and the “Percent Increase Life Span” value [2, 16] was 8%. For the same molecule, the “Indefinite Survivors” value [2, 16] was 0, the “Toxic Deaths” value [2, 16] was 0/10 and the “Percent Increase Life Span” value [2, 17] was 15%. For the same molecule, the “Indefinite Survivors” value [2, 17] was 0, the “Toxic Deaths” value [2, 17] was 0/10 and the “Percent Increase Life Span” value [2, 18] was 18%. The “Indefinite Survivors” value [2, 18] was 0, the “Toxic Deaths” value [2, 18] was 1/10 and the “Percent Increase Life Span” value [2, 19] was 2%. For the same molecule, the “Indefinite Survivors” value [2, 19] was 0, the “Toxic Deaths” value [2, 19] was 4/10 and the “Percent Increase Life Span” value [2, 20] was 74%. The “Indefinite Survivors” value [2, 20] was 0, the “Toxic Deaths” value [2, 20] was 0/10 and the “Percent Increase Life Span” value [2, 21] was 104%. For the same molecule, the “Indefinite Survivors” value [2, 21] was 0, the “Toxic Deaths” value [2, 21] was 0/10 and the “Percent Increase Life Span” value [2, 22] was 136%. For the same molecule, the “Indefinite Survivors” value [2, 22] was 0, the “Toxic Deaths” value [2, 22] was 0/10 and the “Percent Increase Life Span” value [2, 23] was 44%. For the same molecule, the “Indefinite Survivors” value [2, 23] was 0, the “Toxic Deaths” value [2, 23] was 0/10 and the “Percent Inhibition of Tumor” value ([3]; 1.25 mg/kg) was 11%. For the same molecule, the “Toxic Deaths” value ([3]; 1.25 mg/kg) was 1/10, the “Percent Inhibition of Tumor” value ([3]; 2.5 mg/kg) was 52% and the “Toxic Deaths” value ([3]; 2.5 mg/kg) was 1/10. For the same molecule, the “Percent Inhibition of Tumor” value ([3]; 5.0 mg/kg) was 89%, the “Toxic Deaths” value ([3]; 5.0 mg/kg) was 0/10 and the “Percent Inhibition of Tumor” value ([3]; 10.0 mg/kg) was 98%. For the same molecule, the “Toxic Deaths” value ([3]; 10.0 mg/kg) was 0/10, the “Percent Inhibition of Tumor” value ([3]; 20.0 mg/kg) was 100% and the “Toxic Deaths” value ([3]; 20.0 mg/kg) was 0/10.
